From publication PMC12881670, “Investigation into ligand selectivity and bias at the formyl peptide receptor family” (The Journal of Pharmacology and Experimental Therapeutics, 2025)
“Also recorded” adds a separate entry of the source. Read-outs that look alike come from different tables or passages of the source. Where a SMILES comes first, the peptide text is derived from it. Where no end group is shown, it is not given here. The star is where a group is joined. For = O=C*

Columns and labels:
Mm_Fpr1 [1] = target: T1, Mm_Fpr1 (Mus musculus, UniProt P33766); assay: ERK1/2 phosphorylation by Western blotting; assay type: cell-based; parameters: Emax: dose or concentration left out as unconfirmed; details: for Log EC50 (M) / EC50: log of EC50, phosphorylation of ERK1/2, HEK293 stable cells; for Log EC50 (M) / Emax (%) / EC50: mean, ND = no pERK signal detected; for Emax (%): phospho-ERK, % of 1 μM WKYMVm
T1 construct: expressed in transfected cells
T1 sequence (P33766 1-364): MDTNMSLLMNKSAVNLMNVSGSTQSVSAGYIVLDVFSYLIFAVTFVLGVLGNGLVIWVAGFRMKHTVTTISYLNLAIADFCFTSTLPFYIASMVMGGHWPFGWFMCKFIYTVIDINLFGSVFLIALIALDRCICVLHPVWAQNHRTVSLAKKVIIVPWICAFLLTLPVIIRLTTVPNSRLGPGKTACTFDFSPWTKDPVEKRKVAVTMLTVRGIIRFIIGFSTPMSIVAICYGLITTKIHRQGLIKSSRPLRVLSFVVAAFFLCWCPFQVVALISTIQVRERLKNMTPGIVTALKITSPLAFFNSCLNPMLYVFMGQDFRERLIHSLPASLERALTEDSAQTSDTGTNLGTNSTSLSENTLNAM

Hs_FPR1 [2] = target: T2, Hs_FPR1 (Homo sapiens, UniProt P21462); assay: Internalization of FLAG-tagged receptors by flow cytometry; assay type: cell-based; parameters: Emax: dose or concentration left out as unconfirmed; details: for agonist-induced internalization (words): Hs_FPR1, 30 min, relative to 1 μM WKYMVm; for Emax: read-out: Emax (%), internalization, Mean
T2 construct: expressed in transfected cells
T2 sequence (P21462 1-350): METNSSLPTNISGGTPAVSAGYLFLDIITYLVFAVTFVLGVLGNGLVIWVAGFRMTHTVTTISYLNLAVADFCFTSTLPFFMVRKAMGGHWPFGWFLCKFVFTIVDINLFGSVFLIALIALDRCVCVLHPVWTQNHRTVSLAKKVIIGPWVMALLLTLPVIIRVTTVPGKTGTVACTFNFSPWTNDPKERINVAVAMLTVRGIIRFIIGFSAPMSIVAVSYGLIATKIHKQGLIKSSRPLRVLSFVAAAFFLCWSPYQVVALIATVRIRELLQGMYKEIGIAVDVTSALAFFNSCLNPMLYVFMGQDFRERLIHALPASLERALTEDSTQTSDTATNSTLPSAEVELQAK
Experimental: (§1) Internalization of FPRs was measured by flow cytometry.[30] Briefly, cells were incubated with Alexa Fluor 657 conjugated M1 antiflag antibody (Sigma-Aldrich Cat# F3040, RRID:AB_439712) for 30 minutes at 37 °C to label surface receptors. Cells were then incubated with the indicated concentration of ligand before washing in PBS/0.04% EDTA to remove any remaining surface antibody. Remaining fluorescence was then measured using flow cytometry on either a BD FACScalibur or Attune, recording 5000 gated events. […] As a control, some samples were left untreated, and “strip only” was measured as a readout of constitutive endocytosis, and this value was subtracted from the data.
(§2) All data were analyzed using GraphPad Prism using the nonlinear regression log(agonist) versus response (3 parameters) function for all assays, except binding, which was analyzed using the One site-FitlogIC50 function. Bias calculations were carried out following IUPHAR guidelines as described,[27]^,[37] and data were presented as the Δ Activity ratio (Log[EmaxB/EC50B])-(Log[EmaxA/EC50A]).

Hs_FPR2 = target: T3, Hs_FPR2 (Homo sapiens, UniProt P25090); assay: as above; assay type: cell-based; parameters: Emax: dose or concentration left out as unconfirmed; details: for Emax (%), internalization, Mean: % of internalization to WKYMVm (1 mM in legend, 1 μM in text), Hs_FPR2, 30 minutes; for Emax (%), internalization, Mean / Log EC50 (M), internalization, Mean: ND denotes no internalization measured; for agonist-induced internalization (words): Hs_FPR2, 30 min, relative to 1 μM WKYMVm; for Log EC50 (M), internalization, Mean: HEK293 stably expressing FLAG-Hs_FPR2, ligand 30 minutes
T3 construct: expressed in transfected cells
T3 sequence (P25090 1-351): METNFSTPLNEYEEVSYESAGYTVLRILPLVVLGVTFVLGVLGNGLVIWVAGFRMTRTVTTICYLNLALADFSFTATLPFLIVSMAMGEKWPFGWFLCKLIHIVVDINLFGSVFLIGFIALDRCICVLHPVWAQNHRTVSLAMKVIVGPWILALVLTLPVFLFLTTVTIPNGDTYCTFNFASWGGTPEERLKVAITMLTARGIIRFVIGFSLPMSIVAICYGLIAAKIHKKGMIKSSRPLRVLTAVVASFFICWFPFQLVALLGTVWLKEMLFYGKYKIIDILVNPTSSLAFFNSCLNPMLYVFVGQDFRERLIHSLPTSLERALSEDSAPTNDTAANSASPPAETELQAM
Experimental: as §1, §2

Mm_Fpr2 [3] = target: T4, Mm_Fpr2 (Mus musculus, UniProt O88536); assay: Competition binding of fluorescent WKYMVm, flow cytometry; details: for Log IC50 (M): log of IC50, competition with 10 nM K(5/6-FAM)-WKYMVm, HEK293 stable cells, on ice 90 min; for Log IC50 (M) / Max Comp (%): mean, ND = no competition observed; for Max Comp (%): maximum proportion of competition with 10 nM K(5/6-FAM)-WKYMVm
T4 construct: expressed in transfected cells
T4 sequence (O88536 1-351): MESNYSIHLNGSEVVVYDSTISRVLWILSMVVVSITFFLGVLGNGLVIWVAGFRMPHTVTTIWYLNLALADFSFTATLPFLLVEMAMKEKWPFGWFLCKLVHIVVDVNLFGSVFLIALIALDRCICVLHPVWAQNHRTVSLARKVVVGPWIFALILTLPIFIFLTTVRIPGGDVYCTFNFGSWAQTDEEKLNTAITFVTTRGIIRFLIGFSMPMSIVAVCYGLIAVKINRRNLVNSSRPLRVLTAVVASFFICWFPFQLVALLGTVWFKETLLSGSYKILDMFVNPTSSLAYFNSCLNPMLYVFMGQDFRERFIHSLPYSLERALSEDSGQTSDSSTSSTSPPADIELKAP
Experimental: (§3) Mean cell fluorescence was then measured for 5000 cells by flow cytometry using either a BD FACScalibur or BD Attune.
as §2

Mm_Fpr1 [4] = target: T1, Mm_Fpr1; assay: as above; details: for Log IC50 (M): log of IC50, competition with 10 nM K(5/6-FAM)-WKYMVm, HEK293 stable cells, on ice 90 min; for Log IC50 (M) / Max Comp (%): mean, ND = no competition observed; for Max Comp (%): maximum proportion of competition with 10 nM K(5/6-FAM)-WKYMVm
Experimental: as §3, §2

Hs_FPR1 [5] = target: T2, Hs_FPR1; assay: BRET receptor-RLuc8 interaction with Arrestin 3-YFP; assay type: cell-based; details: for Emax (%) / Log EC50 (M): Arrestin 3 BRET, mean, ND = no interaction detected; for Emax (%): % of response to 1 μM WKYMVm; for Log EC50 (M): log of EC50, HEK293 transient, 10 min
In short: (§4)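 Receptor-RLuc8 and acceptor plasmids (Venus-mGsi or YFP-Arrestin 3, 1:4) are transfected; cells are replated after 24 h and grown 24–48 h more. Wells are equilibrated 30 min in HBSS, given coelenterazine h (5 μM final), dosed with compound 5 min later and held 10 min at 37 °C before the BRET read.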

Mm_Fpr2 [6] = target: T4, Mm_Fpr2; assay: as above; assay type: cell-based; details: for Emax (%) / Log EC50 (M): Arrestin 3 BRET, mean, ND = no interaction detected; for Emax (%): % of response to 1 μM WKYMVm; for Log EC50 (M): log of EC50, HEK293 transient, 10 min
In short: as §4

Mm_Fpr1 [7] = target: T1, Mm_Fpr1; assay: as above; assay type: cell-based; details: for Emax (%) / Log EC50 (M): Arrestin 3 BRET, mean, ND = no interaction detected; for Emax (%): % of response to 1 μM WKYMVm; for Log EC50 (M): log of EC50, HEK293 transient, 10 min
In short: as §4

Compound	Log EC50 (M) (Mm_Fpr1 [1])	Emax (%) (Mm_Fpr1 [1])	agonist-induced internalization (words) (Hs_FPR1 [2])	Emax (%), internalization, Mean (Hs_FPR2)	agonist-induced internalization (words) (Hs_FPR2)	Log EC50 (M), internalization, Mean (Hs_FPR2)	Log IC50 (M) (Mm_Fpr2 [3])	Max Comp (%) (Mm_Fpr2 [3])	Log IC50 (M) (Mm_Fpr1 [4])	Max Comp (%) (Mm_Fpr1 [4])	Emax (%) (Hs_FPR1 [5])	Log EC50 (M) (Hs_FPR1 [5])	Emax (%) (Mm_Fpr2 [6])	Log EC50 (M) (Mm_Fpr2 [6])	Emax (%) (Mm_Fpr1 [7])	Emax (Mm_Fpr1 [1])	Emax (Hs_FPR2)	Emax (Hs_FPR1 [5])	Emax (Mm_Fpr2 [6])	Emax (Mm_Fpr1 [7])	other results
Cc1cccc(-c2oc(C)nc2C(=O)Nc2cnn(Cc3nc(C(C)(F)F)co3)n2)c1 [ACT-389949]	−6.383 M	99.504%	only at 10 μM	95.31%	full agonist	−7.975 M	−7.192 M	80.31%	−7.070 M	25.96%	86.48%	−6.00 M	95.34%	−7.66 M	52.62%	–	–	–	–	–	Log EC50 (M) (Mm_Fpr1 [7]): −5.98 M
COc1cc(F)c([C@@H]2CNC(=O)[C@H]2NC(=O)Nc2ccccc2)c(F)c1 [BMS-986235]	–	–	failed to show appreciable internalization; also recorded: unable to induce any measurable internalization	–	robust internalization	–	–	78.55%	–	37.54%	–	–	–	–	–	114%	112%	5.54%	100%	18.2%	EC50 (Mm_Fpr1 [1]): 0.982 µM; EC50 (Hs_FPR2; read-out: Log EC50 (M), internalization, Mean (converted)): 9.1e-07 M; IC50 (Mm_Fpr2 [3]): 0.0726 µM; IC50 (Mm_Fpr1 [4]): 1.12 µM; EC50 (Hs_FPR1 [5]): 2.29 µM; EC50 (Mm_Fpr2 [6]): 0.151 µM; EC50 (Mm_Fpr1 [7]): 0.00676 µM; efficacy, % of WKYMVm (Mm_Fpr1 [7]; Mm_Fpr1, mGsi versus Arrestin3 bias comparison): < 20%
CCCCOc1ccc(C(=O)NN2C(=O)c3ccccc3NC2c2ccc(OC)cc2)cc1 (stereo not shown) [QuinC1]	−6.945 M	150.3%	partial agonists	81.29%	partial agonists	−5.809 M	−7.98 M	27.99%	−6.114 M	52.13%	17.25%	−5.35 M	68.75%	−6.40 M	49.50%	–	–	–	–	–	Log EC50 (M) (Mm_Fpr1 [7]): −6.33 M
CSCC[C@H](NC(=O)[C@H](Cc1ccc(O)cc1)NC(=O)[C@H](CCCCN)NC(=O)[C@@H](N)Cc1c[nH]c2ccccc12)C(=O)N[C@H](C(=O)N[C@H](CCSC)C(N)=O)C(C)C [WKYMVm]	–	–	–	–	–	–	–	–	–	–	–	–	–	–	–	102%	97.5%	105%	101%	112%	Emax (Hs_FPR1 [2]): 106%
CSCC[C@H](NC=O)C(=O)N[C@@H](CC(C)C)C(=O)N[C@@H](Cc1ccccc1)C(=O)N[C@@H](CCCCN)C(=O)O [fMLFK, fMet-Leu-Phe-Lys] (For-MLFK-OH)	–	–	–	–	–	–	–	30.81%	–	72.44%	–	–	–	–	–	140%	99.9%	97.4%	72.5%	95.2%	EC50 (Mm_Fpr1 [1]): 0.851 µM; EC50 (Hs_FPR1 [2]): 0.0162 µM; Emax (Hs_FPR1 [2]): 79.3%; EC50 (Hs_FPR2): 3.34e-05 M; IC50 (Mm_Fpr2 [3]): 0.828 µM; IC50 (Mm_Fpr1 [4]): 8.26 µM; EC50 (Hs_FPR1 [5]): 0.0355 µM; EC50 (Mm_Fpr2 [6]): 16.2 µM; EC50 (Mm_Fpr1 [7]): 7.24 µM
LESIFRSLLFRVM [MMK1]	–	–	failed to show appreciable internalization	–	partial agonism	−7.216 M	–	–	–	–	–	–	–	–	–	–	62.9%	–	–	–	agonist-induced internalization (words) (Hs_FPR1 [2]; listed as MMK-1): unable to induce internalization
